In ChEMBL document CHEMBL1201862, “PubChem BioAssay data set” (2004):
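All cell lines were grown in 96-well plates and treated with compound for 48 hours. At the GI50, growth is halved.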 Calls of active or inactive are those of the source. No stated cut-off is given here; in the data, active = GI50 up to about 1.1 µM and inactive = higher.

Legend:
Assay in all cases: NCI-60 cell line screen, 48 h
K562 = tested on: K562
HL-60 = tested on: HL-60
HCT-116 = tested on: HCT-116
HOP-62 = tested on: HOP-62
COLO 205 = tested on: COLO 205
SR = tested on: SR
SK-OV-3 = tested on: SK-OV-3
T47D = tested on: T47D
MDA-N = tested on: MDA-N
NCI-H23 = tested on: NCI-H23
UACC-62 = tested on: UACC-62
UACC-257 = tested on: UACC-257
SW-620 = tested on: SW-620
OVCAR-8 = tested on: OVCAR-8
A549 = tested on: A549
NCI/ADR-RES = tested on: NCI/ADR-RES
SF-539 = tested on: SF-539
SNB-75 = tested on: SNB-75
SNB-19 = tested on: SNB-19
PC-3 = tested on: PC-3

Structure (SMILES) | GI50 (K562) | GI50 (HL-60) | GI50 (HCT-116) | GI50 (HOP-62) | GI50 (COLO 205) | GI50 (SR) | GI50 (SK-OV-3) | GI50 (T47D) | GI50 (MDA-N) | GI50 (NCI-H23) | GI50 (UACC-62) | GI50 (UACC-257) | GI50 (SW-620) | GI50 (OVCAR-8) | GI50 (A549) | GI50 (NCI/ADR-RES) | GI50 (SF-539) | GI50 (SNB-75) | GI50 (SNB-19) | GI50 (PC-3)
C/C=C(/C)C(=O)O[C@H]1[C@H](O)CC(c2ccc3c(c2O)C(=O)C2=C(O)C4(OC)C(=O)C(C(N)=O)=C(O)[C@H](CC(=O)c5ccccc5O)C4CC2[C@@]3(C)OC)O[C@@H]1C (stereo partly drawn) | 0.01 µM (active) | 0.0248 µM (active) | 0.00121 µM (active) | 0.00331 µM (active) | 0.0104 µM (active) | 0.00426 µM (active) | 0.00446 µM (active) | 0.0113 µM (active) | 0.0272 µM (active) | 0.00711 µM (active) | 0.01 µM (active) | 0.0165 µM (active) | 0.00408 µM (active) | 0.00475 µM (active) | 0.00311 µM (active) | 8.43 µM (inactive) | 0.00611 µM (active) | 0.0198 µM (active) | 0.00433 µM (active) | 0.00637 µM (active)
CC(=O)OC(Cc1cc(C=C(C(F)(F)F)C(F)(F)F)cc(C)n1)(C(F)(F)F)C(F)(F)F | 0.774 µM (active) | 0.124 µM (active) | 1.1 µM (active) | 1.79 µM (inactive) | 0.759 µM (active) | 0.352 µM (active) | 19.5 µM (inactive) | 1.9 µM (inactive) | 1.55 µM (inactive) | 1.45 µM (inactive) | 1.68 µM (inactive) | 1.74 µM (inactive) | 1.28 µM (inactive) | 1.04 µM (active) | 2.88 µM (inactive) | 2.28 µM (inactive) | 2.06 µM (inactive) | 2.03 µM (inactive) | 1.88 µM (inactive) | 1.77 µM (inactive)
CC[C@@]1(O)C(=O)OCc2c1cc1n(c2=O)Cc2c-1nc1ccccc1c2/C=N\NC(=O)C1CCCN1 (stereo partly drawn) | 0.163 µM (active) | 0.046 µM (active) | 0.354 µM (active) | < 0.0196 µM (active) | 6.05 µM (inactive) | < 0.01 µM (active) | 0.442 µM (active) | 0.0135 µM (active) | 1.8 µM (inactive) | 0.0509 µM (active) | < 0.0182 µM (active) | 3.01 µM (inactive) | 0.185 µM (active) | 0.258 µM (active) | 0.826 µM (active) | 0.513 µM (active) | < 0.01 µM (active) | 0.104 µM (active) | < 0.0209 µM (active) | 2.47 µM (inactive)
C/C(=N\NC(=S)N1CCCCC1)c1cccc(C)n1 | < 0.01 µM (active) | < 0.01 µM (active) | < 0.01 µM (active) | < 0.01 µM (active) | < 0.01 µM (active) | < 0.0173 µM (active) | < 0.0146 µM (active) | < 0.01 µM (active) | 0.0871 µM (active) | < 0.01 µM (active) | 0.0318 µM (active) | < 0.01 µM (active) | < 0.01 µM (active) | < 0.01 µM (active) | 0.0325 µM (active) | < 0.01 µM (active) | < 0.0404 µM (active) | 0.196 µM (active) | < 0.0143 µM (active) | < 0.01 µM (active)
CCCCCCCCCCCCCCCCCCNc1ccn(C2OC(COP(=O)(O)OCC3OC(n4cc(F)c(NCCCCCCCCCCCCCCCCCC)nc4=O)CC3O)C(O)C2O)c(=O)n1 (stereo not drawn) | > 100 µM (inactive) | > 100 µM (inactive) | > 100 µM (inactive) | > 100 µM (inactive) | > 100 µM (inactive) | > 100 µM (inactive) | > 100 µM (inactive) | > 100 µM (inactive) | > 100 µM (inactive) | > 100 µM (inactive) | > 100 µM (inactive) | > 100 µM (inactive) | > 100 µM (inactive) | 43.6 µM (inactive) | 82.8 µM (inactive) | > 100 µM (inactive) | > 100 µM (inactive) | > 100 µM (inactive) | 66.8 µM (inactive) | 56.8 µM (inactive)
O=C(O)c1ccccc1C1CCCc2c1[nH]c1ccccc21 (stereo not drawn) | 34.6 µM (inactive) | 33.2 µM (inactive) | 33.8 µM (inactive) | > 100 µM (inactive) | 74 µM (inactive) | 47 µM (inactive) | > 100 µM (inactive) | 11.4 µM (inactive) | 27.6 µM (inactive) | 74.1 µM (inactive) | 53.2 µM (inactive) | 69.7 µM (inactive) | 57.1 µM (inactive) | 75.7 µM (inactive) | 79.3 µM (inactive) | 66.1 µM (inactive) | 88.7 µM (inactive) | 12.7 µM (inactive) | > 100 µM (inactive) | 46.9 µM (inactive)
O=C(O)c1cc2c(cc1S(=O)(=O)O)C1C(C3C2C2(Cl)C(Cl)=C(Cl)C3(Cl)C2(Cl)Cl)C2(Cl)C(Cl)=C(Cl)C1(Cl)C2(Cl)Cl (stereo not drawn) | 34.3 µM (inactive) | 2.43 µM (inactive) | 17.4 µM (inactive) | 26.2 µM (inactive) | 44.1 µM (inactive) | 24.7 µM (inactive) | 39.9 µM (inactive) | 33.2 µM (inactive) | 31.4 µM (inactive) | 26.4 µM (inactive) | 21.9 µM (inactive) | 90.2 µM (inactive) | 37.2 µM (inactive) | 54.7 µM (inactive) | 72.9 µM (inactive) | > 100 µM (inactive) | 25.4 µM (inactive) | 47.6 µM (inactive) | 47.4 µM (inactive) | 41 µM (inactive)
O=[N+]([O-])c1c(F)c(F)c2c(c1F)Nc1ccccc1S2 | 2.87 µM (inactive) | 4.29 µM (inactive) | 2.47 µM (inactive) | 12.6 µM (inactive) | 13.9 µM (inactive) | 2.62 µM (inactive) | 18.2 µM (inactive) | 3.03 µM (inactive) | 4.42 µM (inactive) | 2.63 µM (inactive) | 5.61 µM (inactive) | 1.49 µM (inactive) | 2.77 µM (inactive) | 1.96 µM (inactive) | 19.2 µM (inactive) | 25.9 µM (inactive) | 20.6 µM (inactive) | 17.3 µM (inactive) | 7.23 µM (inactive) | 9.16 µM (inactive)
C=C(CCC(=O)N(CCc1c[nH]c2ccccc12)C(=O)c1ccccc1CSCC)C(=O)OC | 5.66 µM (inactive) | 3.46 µM (inactive) | 7.19 µM (inactive) | > 69.2 µM (inactive) | 20.9 µM (inactive) | > 100 µM (inactive) | > 71.3 µM (inactive) | 21.9 µM (inactive) | 38.4 µM (inactive) | 31.9 µM (inactive) | 12.4 µM (inactive) | 35.3 µM (inactive) | 49.9 µM (inactive) | 48.4 µM (inactive) | 27.1 µM (inactive) | 27.3 µM (inactive) | > 88.5 µM (inactive) | > 83.8 µM (inactive) | 56.5 µM (inactive) | 23.2 µM (inactive)
CC(C)C(=O)/C=C/c1ccc(Cl)cc1Cl | 5.37 µM (inactive) | 7.05 µM (inactive) | 2.65 µM (inactive) | 18.5 µM (inactive) | 18.5 µM (inactive) | 6.61 µM (inactive) | 19.6 µM (inactive) | 13 µM (inactive) | 2.96 µM (inactive) | 13.7 µM (inactive) | 13 µM (inactive) | 13.3 µM (inactive) | 3.1 µM (inactive) | 10.5 µM (inactive) | 14.8 µM (inactive) | 20.1 µM (inactive) | 18.4 µM (inactive) | 14.4 µM (inactive) | 15.8 µM (inactive) | 18.7 µM (inactive)
O=c1[nH]c2nccn2c(Cl)c1Br | 19.6 µM (inactive) | 17.2 µM (inactive) | 32.5 µM (inactive) | > 100 µM (inactive) | 18.6 µM (inactive) | 22.4 µM (inactive) | 29.6 µM (inactive) | 14.8 µM (inactive) | 20 µM (inactive) | 17.9 µM (inactive) | 19.4 µM (inactive) | 16.4 µM (inactive) | 26.6 µM (inactive) | 19.2 µM (inactive) | > 100 µM (inactive) | 22.9 µM (inactive) | > 100 µM (inactive) | 33.7 µM (inactive) | 27.7 µM (inactive) | 50.2 µM (inactive)
CNC(=O)OCc1c(COC(=O)NC)c(C)n(-c2ccc(Br)cc2)c1C | 15.8 µM (inactive) | 6.25 µM (inactive) | 10.8 µM (inactive) | 13.2 µM (inactive) | 13.4 µM (inactive) | 1.38 µM (inactive) | 10.4 µM (inactive) | 10.2 µM (inactive) | 15.7 µM (inactive) | 14.3 µM (inactive) | 4.89 µM (inactive) | 15.3 µM (inactive) | 10.7 µM (inactive) | 12.1 µM (inactive) | 16.9 µM (inactive) | 16.3 µM (inactive) | 15.4 µM (inactive) | 4.17 µM (inactive) | 18.7 µM (inactive) | 17.2 µM (inactive)
CCNC(=O)/C(=C/c1ccc(OC)cc1)c1cc(OC)c(OC)c(OC)c1 | 3.19 µM (inactive) | 2.96 µM (inactive) | 6.18 µM (inactive) | 10.9 µM (inactive) | 5.11 µM (inactive) | 4.17 µM (inactive) | 6.85 µM (inactive) | > 20.4 µM (inactive) | 1.58 µM (inactive) | 13 µM (inactive) | 3.8 µM (inactive) | 13.5 µM (inactive) | 4.52 µM (inactive) | 21.3 µM (inactive) | 7.62 µM (inactive) | 3 µM (inactive) | 7.87 µM (inactive) | 4.97 µM (inactive) | 12.5 µM (inactive) | 3.52 µM (inactive)
CCC(C)N1CN(c2ccccc2)C2(CCN(CCCC(=O)c3ccc(F)cc3)CC2)C1=O (stereo not drawn) | 9.18 µM (inactive) | 4.76 µM (inactive) | 0.697 µM (active) | 1.87 µM (inactive) | 0.193 µM (active) | 5.98 µM (inactive) | 9.29 µM (inactive) | 1.68 µM (inactive) | 11.7 µM (inactive) | 3.57 µM (inactive) | 16.6 µM (inactive) | – | 3.77 µM (inactive) | > 10 µM (inactive) | 6.03 µM (inactive) | 83 µM (inactive) | 7.71 µM (inactive) | 19.5 µM (inactive) | – | 10.6 µM (inactive)
